Consider 10 molecules from doi:10.1101/2021.08.24.457553v1 (biorxiv, 2021).

SMILES strings stand for the structures.

Series [1] addresses T1, PfPKG (Plasmodium falciparum, UniProt Q8I719). The series is described as follows: in vitro PfPKG kinase inhibition assay. The note with it: […] compound. The format is biochemical.
Series [2] can be described thus: in vitro. More on the design: species or system primary non-human primate hepatocytes. Conditions: monkey, primary hepatocytes.
The target in series [3] is T1, PfPKG. Nature of the series: in vitro PfPKG kinase inhibition assay. It is filed as biochemical.
The nature of series [4]: in vitro. More on the design: species or system primary non-human primate hepatocytes. The note with it: monkey, primary hepatocytes. This is another data set of the same source.
A further series deals with 2C9 (Homo sapiens, UniProt P11712). The series is described as follows: biochemical.
The next series deals with 2D6 (Homo sapiens, UniProt P10635). Nature of the series: biochemical.
For series [5] the following is noted: liver microsomes. (In general: Liver microsomes are vesicles of endoplasmic reticulum, rich in cytochrome P450 enzymes.)
The next series deals with P. berghei. The series is described as follows: microbe, parasite or virus in culture. Conditions: Plasmodium berghei, HepG2, read-out: % inhibition.
The conditions of series [6]: liver microsomes. The source holds these as a separate data set.
A further series deals with CYP3A4 (Homo sapiens, UniProt P08684). Nature of the series: in vitro CYP3A4 inhibition. The format is cell-based.
A further series addresses hERG (Homo sapiens, UniProt Q12809). Conditions: HEK293, 10 µM.
Series [7] has as its target T1, PfPKG. The series is described as follows: in vitro PfPKG kinase inhibition assay. The format is biochemical. Conditions: […] compound. This is another data set of the same source.

T1 sequence (Q8I719 whole entry): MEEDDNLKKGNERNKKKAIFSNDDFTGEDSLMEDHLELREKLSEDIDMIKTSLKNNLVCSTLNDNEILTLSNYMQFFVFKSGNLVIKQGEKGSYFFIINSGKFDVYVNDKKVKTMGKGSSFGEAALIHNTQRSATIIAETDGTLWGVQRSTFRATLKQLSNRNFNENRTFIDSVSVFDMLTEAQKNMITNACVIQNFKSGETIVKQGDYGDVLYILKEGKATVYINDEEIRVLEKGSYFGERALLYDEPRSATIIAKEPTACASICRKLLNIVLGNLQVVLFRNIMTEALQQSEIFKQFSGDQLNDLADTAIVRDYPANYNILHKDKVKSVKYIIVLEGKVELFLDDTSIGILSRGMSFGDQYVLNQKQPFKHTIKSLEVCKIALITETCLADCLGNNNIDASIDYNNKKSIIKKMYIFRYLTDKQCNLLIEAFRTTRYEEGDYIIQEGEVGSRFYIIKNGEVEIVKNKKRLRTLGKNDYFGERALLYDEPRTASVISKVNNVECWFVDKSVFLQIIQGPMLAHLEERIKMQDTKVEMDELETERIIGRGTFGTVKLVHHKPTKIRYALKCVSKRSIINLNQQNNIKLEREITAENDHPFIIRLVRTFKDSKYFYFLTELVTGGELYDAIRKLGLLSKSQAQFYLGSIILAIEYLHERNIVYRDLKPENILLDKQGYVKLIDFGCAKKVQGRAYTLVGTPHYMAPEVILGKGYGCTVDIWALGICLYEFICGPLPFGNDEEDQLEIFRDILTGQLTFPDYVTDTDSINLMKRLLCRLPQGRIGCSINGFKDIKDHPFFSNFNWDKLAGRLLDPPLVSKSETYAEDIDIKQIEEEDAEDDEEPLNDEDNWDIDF
CYP3A4, sequence (P08684 2-503): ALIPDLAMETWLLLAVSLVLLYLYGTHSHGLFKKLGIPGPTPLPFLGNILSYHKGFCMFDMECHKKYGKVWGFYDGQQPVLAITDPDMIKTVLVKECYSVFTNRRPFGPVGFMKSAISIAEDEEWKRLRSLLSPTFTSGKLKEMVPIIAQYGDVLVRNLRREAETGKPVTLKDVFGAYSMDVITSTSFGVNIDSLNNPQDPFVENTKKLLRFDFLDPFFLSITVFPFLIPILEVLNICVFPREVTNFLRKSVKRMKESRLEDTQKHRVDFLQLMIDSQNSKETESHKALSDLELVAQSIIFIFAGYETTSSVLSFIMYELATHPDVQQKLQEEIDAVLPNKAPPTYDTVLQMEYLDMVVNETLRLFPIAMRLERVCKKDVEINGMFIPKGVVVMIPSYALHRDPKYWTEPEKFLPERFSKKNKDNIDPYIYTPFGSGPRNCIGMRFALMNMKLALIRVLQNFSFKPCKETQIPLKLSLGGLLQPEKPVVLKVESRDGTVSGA
hERG, sequence (Q12809 whole entry): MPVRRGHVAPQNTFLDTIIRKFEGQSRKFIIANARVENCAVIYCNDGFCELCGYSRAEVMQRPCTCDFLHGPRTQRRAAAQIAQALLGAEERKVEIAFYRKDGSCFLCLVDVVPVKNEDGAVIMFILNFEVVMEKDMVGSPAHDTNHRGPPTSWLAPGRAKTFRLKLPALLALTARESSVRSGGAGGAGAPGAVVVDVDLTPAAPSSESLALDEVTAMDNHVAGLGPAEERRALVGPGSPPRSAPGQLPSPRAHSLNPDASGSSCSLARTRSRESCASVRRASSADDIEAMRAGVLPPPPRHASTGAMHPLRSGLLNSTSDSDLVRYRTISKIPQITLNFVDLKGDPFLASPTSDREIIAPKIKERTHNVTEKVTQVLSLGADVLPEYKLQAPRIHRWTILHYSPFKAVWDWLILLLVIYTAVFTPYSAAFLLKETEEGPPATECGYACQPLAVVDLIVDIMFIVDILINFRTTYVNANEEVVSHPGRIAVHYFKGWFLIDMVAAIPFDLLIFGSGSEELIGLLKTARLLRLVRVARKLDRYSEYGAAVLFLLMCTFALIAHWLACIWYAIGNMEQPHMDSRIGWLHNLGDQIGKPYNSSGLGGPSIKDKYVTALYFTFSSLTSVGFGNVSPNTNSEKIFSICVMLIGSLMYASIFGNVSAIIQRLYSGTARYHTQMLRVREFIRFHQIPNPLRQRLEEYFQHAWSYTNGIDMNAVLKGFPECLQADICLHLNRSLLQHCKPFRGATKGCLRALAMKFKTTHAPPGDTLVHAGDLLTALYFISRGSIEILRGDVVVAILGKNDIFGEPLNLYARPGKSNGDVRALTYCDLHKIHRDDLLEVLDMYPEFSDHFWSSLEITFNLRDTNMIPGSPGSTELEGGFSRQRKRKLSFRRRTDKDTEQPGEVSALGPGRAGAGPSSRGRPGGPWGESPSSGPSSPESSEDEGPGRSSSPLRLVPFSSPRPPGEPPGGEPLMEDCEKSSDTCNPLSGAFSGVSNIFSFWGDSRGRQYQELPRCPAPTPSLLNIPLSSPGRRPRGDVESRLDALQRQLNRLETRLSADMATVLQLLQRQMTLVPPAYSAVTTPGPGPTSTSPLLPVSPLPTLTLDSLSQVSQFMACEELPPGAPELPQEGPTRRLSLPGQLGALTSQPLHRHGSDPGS
2C9, sequence (P11712 whole entry): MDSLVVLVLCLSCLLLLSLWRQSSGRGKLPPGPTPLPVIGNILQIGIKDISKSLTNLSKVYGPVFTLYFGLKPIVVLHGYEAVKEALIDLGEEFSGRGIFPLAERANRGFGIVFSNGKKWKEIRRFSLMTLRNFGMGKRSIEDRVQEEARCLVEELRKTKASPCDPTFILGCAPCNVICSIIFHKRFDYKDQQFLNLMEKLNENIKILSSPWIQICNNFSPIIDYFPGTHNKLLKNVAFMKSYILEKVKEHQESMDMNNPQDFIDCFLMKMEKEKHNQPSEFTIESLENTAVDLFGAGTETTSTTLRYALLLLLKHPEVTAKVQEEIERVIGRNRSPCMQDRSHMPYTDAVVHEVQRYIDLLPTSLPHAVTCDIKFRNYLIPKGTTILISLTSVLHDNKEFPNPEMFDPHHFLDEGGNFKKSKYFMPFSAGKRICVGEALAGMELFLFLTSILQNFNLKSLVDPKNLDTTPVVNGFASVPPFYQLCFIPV
2D6, sequence (P10635 whole entry): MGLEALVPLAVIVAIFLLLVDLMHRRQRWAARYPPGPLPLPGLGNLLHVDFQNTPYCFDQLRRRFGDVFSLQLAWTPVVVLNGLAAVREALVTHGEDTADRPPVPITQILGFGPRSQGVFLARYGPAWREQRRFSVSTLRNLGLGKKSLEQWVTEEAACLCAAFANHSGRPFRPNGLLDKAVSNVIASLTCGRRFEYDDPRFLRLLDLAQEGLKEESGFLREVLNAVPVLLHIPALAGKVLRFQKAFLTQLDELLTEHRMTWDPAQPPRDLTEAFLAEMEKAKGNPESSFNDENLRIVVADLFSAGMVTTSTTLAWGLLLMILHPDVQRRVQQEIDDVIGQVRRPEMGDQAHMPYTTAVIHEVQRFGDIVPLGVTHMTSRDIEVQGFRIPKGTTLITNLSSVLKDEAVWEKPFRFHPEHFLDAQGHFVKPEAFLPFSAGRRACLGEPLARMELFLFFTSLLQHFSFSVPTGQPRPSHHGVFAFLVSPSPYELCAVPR

Turning to `Cc1cn(-c2ccnc(NC3CCCN(C(=O)c4nccs4)C3)n2)c(-c2ccccc2)n1` (racemic) [10d], on PfPKG [1], the “% inh @ 1 uM” value is 4%.

Turning to `Cc1cn(-c2ccnc(N[C@@H]3CCN(C(=O)c4nccs4)C3)n2)c(-c2ccccc2)n1` [10a], the CC50 at 96 h in the series “in vitro [2]” and in “in vitro [4]” was greater than 20000 nM throughout. The IC50 was 320 nM against PfPKG [3], greater than 10000 nM against 2C9 and greater than 10000 nM against 2D6. In addition, in series [5], the “HLM t1/2” value is less than 2 min. Also, in the series on P. berghei, the inhibition at 2 µM is 78 ± 20%. The inhibition at 10 µM in the series with P. berghei was 89 ± 7%. Further, the “MLM t1/2” value in series [6] was less than 2 min.

As to `Cc1cn(-c2ccnc(N[C@@H]3CCN(C(=O)c4ccn(C)n4)C3)n2)c(-c2ccccc2)n1` [10b], at PfPKG [3], the IC50 was 1000 nM.

As for `Cc1cn(-c2ccnc(N[C@H]3CCN(C(=O)c4nccs4)C3)n2)c(-c2ccccc2)n1` [10c], the “% inh @ 1 uM” value at PfPKG [1] came to 4%.

On to `O=C(c1nccs1)N1CC[C@@H](Nc2nccc(-n3cc(C4CC4)nc3-c3ccccc3)n2)C1` [14a], for which the IC50 is 100 nM at PfPKG [3] and less than 300 nM against CYP3A4. The “HLM t1/2” value in series [5] is 4.8 min. Besides, the “MLM t1/2” value in [6] is less than 2 min. The “hERG % inh. @ 10 uM” value at hERG is listed as 1%.

Consider `O=C(c1nccs1)N1CC[C@@H](Nc2nccc(-n3cc(C4CC4)nc3-c3cccc(Cl)c3)n2)C1` [14b], for which the CC50 at 96 h in the series “in vitro [2]” and in the series “in vitro [4]” was greater than 20000 nM throughout. Further, the IC50 was 60 nM at PfPKG [3] and less than 300 nM at CYP3A4. The “HLM t1/2” value in series [5] came out at 3.7 min. Further, the inhibition at 2 µM in the series on P. berghei came out at 94 ± 3%. Further, the inhibition at 10 µM in the series on P. berghei came out at 93 ± 3%. In addition, in [6], the “MLM t1/2” value is less than 2 min. The “hERG % inh. @ 10 uM” value on hERG is recorded as 9%.

Turning to `COc1cccc(-c2nc(C)cn2-c2ccnc(N[C@@H]3CCN(C(=O)c4nccs4)C3)n2)c1` [18a], on PfPKG [3], the IC50 was 86 nM.

In the case of `Cc1cn(-c2ccnc(N[C@@H]3CCN(C(=O)c4nccs4)C3)n2)c(-c2ccccc2Cl)n1` [18b], at PfPKG [7], the “% inhib @ 1 uM” value is listed as 47%.

As to `Cc1cn(-c2ccnc(N[C@@H]3CCN(C(=O)c4nccs4)C3)n2)c(-c2ccc(Cl)cc2)n1` [18c], the IC50 on PfPKG [3] worked out at 1160 nM.

`Cc1cn(-c2ccnc(N[C@@H]3CCN(C(=O)c4nccs4)C3)n2)c(-c2cccc(OC(F)(F)F)c2)n1` [18d]: the IC50 against PfPKG [3] came out at 150 nM. This IC50 is about 7.7-fold lower than that of the molecule before.

Broadly, the IC50 is the concentration needed to halve the response being measured. Low readings indicate greater potency in that assay, high ones weaker potency in that assay. By inhibition is commonly meant the drop in the measured response relative to a control, in per cent.
